For assay [1], the target named is T1, ScDmc1 (Dmc1–WT) (Saccharomyces cerevisiae, UniProt P25453).
T1 construct: N-terminal 6x-His tag (kept), expressed in E. coli; nucleoprotein filament on 90 nt ssDNA
T1 sequence (P25453 1-334): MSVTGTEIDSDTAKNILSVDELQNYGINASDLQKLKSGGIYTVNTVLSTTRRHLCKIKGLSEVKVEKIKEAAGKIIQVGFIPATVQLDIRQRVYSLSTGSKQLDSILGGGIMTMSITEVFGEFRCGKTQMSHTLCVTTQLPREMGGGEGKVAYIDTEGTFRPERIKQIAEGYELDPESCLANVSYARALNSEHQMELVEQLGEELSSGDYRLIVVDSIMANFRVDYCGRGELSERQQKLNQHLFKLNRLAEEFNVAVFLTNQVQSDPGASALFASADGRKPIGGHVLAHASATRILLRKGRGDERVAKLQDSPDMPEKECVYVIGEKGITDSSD
The assay can be described thus: nitrocellulose filter binding. The settings on record: 3 µM Dmc1, 90 nt ssDNA (6 µM nt), 5 mM Mg2+, 70 µM Ca2+, pH 7.5, 30°C; labelled compound (alpha-32P); read-out: KD (apparent). The text has this: nitrocellulose filter binding on ScDmc1 (Dmc1–WT) | Dmc1–WT binds ATP with the same apparent affinity in the presence and absence of Mei5–Sae3

Assay [2] concerns the target T2, ScDmc1 (Saccharomyces cerevisiae, UniProt P25453, E157D).
T2 construct: gene DMC1; N-terminal 6x-His tag (kept), expressed in E. coli; nucleoprotein filament on 90 nt ssDNA
T2 sequence (P25453 1-334 E157D): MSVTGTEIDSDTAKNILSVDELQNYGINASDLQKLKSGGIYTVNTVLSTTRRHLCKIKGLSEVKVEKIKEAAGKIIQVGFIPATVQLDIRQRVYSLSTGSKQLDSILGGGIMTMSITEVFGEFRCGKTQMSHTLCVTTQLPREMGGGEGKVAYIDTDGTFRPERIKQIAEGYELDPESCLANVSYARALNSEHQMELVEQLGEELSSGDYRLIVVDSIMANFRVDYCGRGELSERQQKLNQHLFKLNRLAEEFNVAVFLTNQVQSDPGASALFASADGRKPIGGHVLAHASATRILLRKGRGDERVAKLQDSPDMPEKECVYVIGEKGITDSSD
The assay can be described thus: nitrocellulose filter binding. The settings on record: 3 µM Dmc1, 90 nt ssDNA (6 µM nt), 5 mM Mg2+, 70 µM Ca2+, pH 7.5, 30°C; labelled compound (alpha-32P).

The structures appear in SMILES notation.

`Nc1ncnc2c1ncn2[C@@H]1O[C@H](COP(=O)(O)OP(=O)(O)OP(=O)(O)O)[C@@H](O)[C@H]1O` [ATP]: the Kd in assay [1] was 5 to 6 µM. Further, the nitrocellulose filter binding entry in assay [2] was “ATP binding activity of Dmc1–E157D and found it was significantly reduced”.

The values above are taken from PMC12596195, “Mei5–Sae3 stabilizes both active and inactive forms of Dmc1 filaments independently of its impact on ATP hydrolysis” (Nucleic Acids Research, 2025).
